From patent US11800866B2, “Methods for control of pests” (Bio-Gene Technology Limited, priority 2018, dated 2023)
In brackets after ≈: the same amount, converted by molar mass. Where two headings read alike, the source gives them in different places.

Tests used:
Assay type in all cases: in vivo
[1] = tested on: cotton aphid (Aphis gossypii); assay: field trial, control of cotton aphid in cotton
Protocol: A field trial was conducted on a small plot of cotton in March 2018 to evaluate flavesone for the control of cotton aphid in cotton. The trial was conducted near Burren Junction in the Lower Namoi Valley Region of New South Wales, Australia. The trial was conducted in a crop grown as per standard commercial practice. It was precision planted on hills in rows 1 m apart and furrow flood irrigated. The crop was fully irrigated being watered as required over the duration of the season. The crop matured to produce good yield, typical of the region for the season. Light rainfall occurred at 6 and 7 days after treatment (DAT). The maximum temperature ranged from 28 to 38° C. and minimum temperature ranged from 14 to 23° C.
The plot was 4 m×8 m and four replicates were used. The plot was infested with cotton aphid at a moderate to high level with 36% of leaves infested pre-spray. The population on the untreated cotton increased over the duration of the trial with 83% leaves infested at 7 DAT.
The crop was either left untreated (control), treated with flavesone (Flavocide 500 EW) at varying concentrations or treated with Pirimor® (pirimicarb, positive control) as set out in Table 3:
The test solution was applied by broadcast method using a hand held boom sprayer with nozzles (Spraying Systems TT110015 flat fans) spaced 50 cm apart, with pressure being 250 kPa. Application speed was 1.5 m/s and the application volume was 105 L/ha.
The effectiveness of the application was evaluated on day 0 and 3 and 7 DAT. 20 leaves in the upper canopy of the plants in each plot were inspected and the number of aphids on each leaf recorded. The percentage of leaves infested and the mean number of aphids per leaf was then determined.
Statistical analyses were conducted using GenStat 64-bit Release 17.1 (PC/Windows Server 2008, VSN International Ltd). The model includes all treatment effects. Analysis of variance and least significant difference (LSD) procedures were used. Further means of separation was achieved by transforming the data using Square Root (x+0.5) or Log Base 10.

[2] = tested on: Russian Wheat Aphid (Diuraphis noxia); assay: leaf dip method on wheat leaf segments, Russian Wheat Aphid; settings: for LC50: concentration giving 50% mortality, 95% CIs
Protocol: The efficacy of flavesone against Russian Wheat Aphid (Diuraphis noxia) was assessed using the leaf dip method described in Moores et al 1994 (Pesticide Biochemistry and Physiology, 49, 114-120), adapted for use with cereal aphids by using wheat leaf segments.
Serially diluted concentrations of flavesone (1 to 30000 mg/L) were tested at rates designed to include the expected field rate in cereals (Table 1), along with a control of water. Leaf segments (25 mm) cut from wheat (Triticum aestivum) plants were submerged for 1 second in the insecticide solutions or water (control), and placed adaxial side up on 10 g/L agar in 35 mm petri dishes. Once leaves were air-dry, eight 3-4 day old D. noxia nymphs were transferred to insecticide-dipped leaf segments using a fine-haired paintbrush. The population used was originally collected from Dingee (VIC) and maintained in the laboratory under a 18:6 LD cycle at 12-20° C. since June 2016.
The petri dishes were then inverted onto a lid containing a 25 mm diameter filter paper to control humidity, and were placed at 18° C.±2° C. with a photoperiod of 16:8 LD cycle. Six replicates were used for each concentration tested, and responses were assessed after 48 and 96 hours. Aphids were scored as alive (vibrant and moving freely), dead (not moving over a 5 second period), or incapacitated (inhibited movement).
Dose-response curves were generated by plotting percentage mortality against log concentration. Mortality data was analysed using a logistic regression model with random effects. Logistic regression is suited for the analysis of binary response data (i.e. dead/alive) with the random effect component of the model controlling for the non-independence of mortality scores within replicates. […] Analyses were conducted using R version 3.3.1 (R Development Core Team 2018, R: A language and environment for statistical computing. R Foundation for Statistical Computing, Vienna, Austria. http//www.R-project.org).

[3] = tested on: green peach aphid (Myzus persicae); assay: leaf dip assay on Chinese cabbage leaves, green peach aphid
Protocol: The efficacy of flavesone against green peach aphid (Myzus persicae) was tested in a similar leaf dip assay as set out in Example 1, but used Chinese cabbage leaves, and 10 to 100,000 mg/L flavesone concentrations. The green peach aphids used were cultured in the laboratory from field collected insects.

`CC(C)C(=O)C1C(=O)C(C)(C)C(=O)C(C)(C)C1=O` [Flavesone, 1-isobutyroyl-3,3,5,5-tetramethylcyclohexan-2,4,6-trione] was tested, and the “Mean Number of Cotton Aphid per leaf” value ([1]; 0.1% v/v, 0 DAT (pre-spray)) was 1.5 ab, the “Mean Percentage of Leaves infested with cotton Aphid” value (shortened to “Mean Percentage of Leaves infested”) ([1]; 0.1% v/v, 0 DAT (pre-spray)) was 34% and the “Mean Number of Cotton Aphid per leaf” value ([1]; 0.1% v/v, 3 DAT) was 1.1 ab. For the same molecule, the “Mean Percentage of Leaves infested” value ([1]; 0.1% v/v, 3 DAT) was 15%, the “Mean Number of Cotton Aphid per leaf” value ([1]; 0.1% v/v, 7 DAT) was 2.5 bc and the “Mean Percentage of Leaves infested” value ([1]; 0.1% v/v, 7 DAT) was 43 c %. For the same molecule, the “Mean Number of Cotton Aphid per leaf” value ([1]; 0.25% v/v, 0 DAT (pre-spray)) was 2.6 b, the “Mean Percentage of Leaves infested” value ([1]; 0.25% v/v, 0 DAT (pre-spray)) was 43% and the “Mean Number of Cotton Aphid per leaf” value ([1]; 0.25% v/v, 3 DAT) was 2.1 ab. The “Mean Percentage of Leaves infested” value ([1]; 0.25% v/v, 3 DAT) was 39%, the “Mean Number of Cotton Aphid per leaf” value ([1]; 0.25% v/v, 7 DAT) was 3.1 c and the “Mean Percentage of Leaves infested” value ([1]; 0.25% v/v, 7 DAT) was 38 bc %. For the same molecule, the “Mean Number of Cotton Aphid per leaf” value ([1]; 0.50% v/v, 0 DAT (pre-spray)) was 1.1 . . . ab, the “Mean Percentage of Leaves infested” value ([1]; 0.50% v/v, 0 DAT (pre-spray)) was 30% and the “Mean Number of Cotton Aphid per leaf” value ([1]; 0.50% v/v, 3 DAT) was 1.0 ab. The “Mean Percentage of Leaves infested” value ([1]; 0.50% v/v, 3 DAT) was 19%, the “Mean Number of Cotton Aphid per leaf” value ([1]; 0.50% v/v, 7 DAT) was 2.4 bc and the “Mean Percentage of Leaves infested” value ([1]; 0.50% v/v, 7 DAT) was 40 c %. For the same molecule, the “Mean Number of Cotton Aphid per leaf” value ([1]; 0.75% v/v, 0 DAT (pre-spray)) was 1.4 ab, the “Mean Percentage of Leaves infested” value ([1]; 0.75% v/v, 0 DAT (pre-spray)) was 33% and the “Mean Number of Cotton Aphid per leaf” value ([1]; 0.75% v/v, 3 DAT) was 3.4 b. The “Mean Percentage of Leaves infested” value ([1]; 0.75% v/v, 3 DAT) was 34%, the “Mean Number of Cotton Aphid per leaf” value ([1]; 0.75% v/v, 7 DAT) was 2.7 bc and the “Mean Percentage of Leaves infested” value ([1]; 0.75% v/v, 7 DAT) was 50 c %. For the same molecule, the “Mean Number of Cotton Aphid per leaf” value ([1]; 1.00% v/v, 0 DAT (pre-spray)) was 0.6 a, the “Mean Percentage of Leaves infested” value ([1]; 1.00% v/v, 0 DAT (pre-spray)) was 26% and the “Mean Number of Cotton Aphid per leaf” value ([1]; 1.00% v/v, 3 DAT) was 0.2 a. For the same molecule, the “Mean Percentage of Leaves infested” value ([1]; 1.00% v/v, 3 DAT) was 9%, the “Mean Number of Cotton Aphid per leaf” value ([1]; 1.00% v/v, 7 DAT) was 1.0 ab and the “Mean Percentage of Leaves infested” value ([1]; 1.00% v/v, 7 DAT) was 19 b %. For the same molecule, the “control of cotton aphid” value ([1]; highest 1% v/v rate) was “slightly better control”, the “toxicity to D. noxia” value ([2]; 1-30,000 mg a.i./L) was “toxic to D. noxia” and the LC50 ([2]; Diuraphis noxia, foliar, exposure time not given, read-out: LC50) was 405 µg/mL (≈ 1610 µM). It also gave a mortality at 3000 µg/mL ([2]; Diuraphis noxia, foliar, 3,000 mg a.i./L, largest increase, read-out: increase of mortality between 48 and 96 hours) of 58%, a mortality at 30000 µg/mL ([2]; Diuraphis noxia, foliar, 30,000 mg a.i./L, 48 hours exposure) of 100% and an LC50 ([2]; exposure time not given) of 405.4 mg a.i./L. The LC90 ([2]; concentration giving 90% mortality, exposure time not given) was 1.5 × 10^4 mg a.i./L, the LC99 ([2]; concentration giving 99% mortality, exposure time not given) was 8.1 × 10^5 mg a.i./L and the “concentration at which mortality began to increase” value ([2]; in vivo) was 300 mg a.i./L. For the same molecule, the “toxicity to green peach aphid” value ([3]; 10 to 100,000 mg/L) was “toxic to green peach aphid”, the “concentration at which mortality responses began to increase” value ([3]; 48 hours) was 1000 mg/L and the “concentration at which mortality increased” value ([3]; 96 hours) was 1000 mg/L. The mortality at 10000 µg/mL ([3]; Myzus persicae, foliar, 10,000 mg/L, 96 hours) was 100% and the mortality at 30000 µg/mL ([3]; Myzus persicae, foliar, 30,000 mg/L, 48 hours exposure) was 100%.
